How the values were obtained:
[1] = tested on: Vero; test: Compound was evaluated for its cytotoxicity against Vero cell line; type: functional, Chlorocebus sabaeus
[2] = target: Protein kinase C (PKC) (Homo sapiens) (UniProt O94806+P41743+P17252+P05129+Q05655+P05771+Q05513+Q02156+P24723+Q15139+Q04759); test: Percent inhibition of protein kinase C at 100 uM; type: protein assay
[3] = tested on: Human betaherpesvirus 5; test: Inhibitory activity against human cytomegalo virus (HCMV) using standard plaque reduction assay; type: functional, organism-based
[4] = tested on: MRC5; test: Inhibitory concentration against C8805 HCMV strain of MRC5 cells; type: functional, cell-based; conditions: Homo sapiens
[5] = tested on: MRC5; test: Inhibitory concentration against Xba F HCMV strain of MRC5 cells; type: functional, cell-based; conditions: Homo sapiens
[6] = tested on: MRC5; test: Inhibitory concentration against AD169 HCMV strain of MRC5 cells; type: functional, cell-based; conditions: Homo sapiens
[7] = tested on: MRC5; test: Inhibitory concentration against 2599R HCMV strain of MRC5 cells; type: functional, cell-based; conditions: Homo sapiens
[8] = tested on: MRC5; test: Inhibitory concentration against Davis HCMV strain of MRC5 cells; type: functional, cell-based; conditions: Homo sapiens
[9] = tested on: MRC5; test: Inhibitory concentration against Towne HCMV strain of MRC5 cells; type: functional, cell-based; conditions: Homo sapiens
[10] = target: Protein kinase C (PKC); test: Inhibition of protein kinase C; type: protein assay
[11] = tested on: MRC5; test: Inhibitory concentration against AD169 strain of HCMV in MRC5 cells; type: functional, cell-based; conditions: Homo sapiens
[12] = tested on: MRC5; test: Inhibitory concentration against Xba F strain of HCMV in MRC5 cells; type: functional, cell-based; conditions: Homo sapiens
[13] = tested on: MRC5; test: Inhibitory concentration against Towne strain of HCMV in MRC5 cells; type: functional, cell-based; conditions: Homo sapiens
[14] = tested on: MRC5; test: Inhibitory concentration against Davis strain of HCMV in MRC5 cells; type: functional, cell-based; conditions: Homo sapiens
[15] = tested on: MRC5; test: Inhibitory concentration against 2599R strain of HCMV in MRC5 cells; type: functional, cell-based; conditions: Homo sapiens

| SMILES | CCID50 [1] [µM] | inhibition [2] [%] | IC50 [3] [nM] | IC50 [10] [nM] | also measured |
| --- | --- | --- | --- | --- | --- |
| CC(C)Cn1c2ccccc2c2c3c(c4c5ccccc5[nH]c4c21)C(=O)NC3=O | <8 | 71 | 30 |  |  |
| CCn1c2ccccc2c2c3c(c4c5ccccc5[nH]c4c21)C(=O)NC3=O | >125 |  | 19 | 10000 | IC50 [4]: 60 nM; IC50 [5]: 20 nM; IC50 [6]: 19 nM; IC50 [7]: 130 nM; IC50 [8]: 30 nM; IC50 [9]: 90 nM |
| Nc1nc2c(ncn2COC(CO)CO)c(=O)[nH]1 [GANCICLOVIR] | >500 |  | 3000 |  | IC50 [11]: 3000 nM; IC50 [12]: > 10000 nM; IC50 [13]: 1500 nM; IC50 [14]: 1400 nM; IC50 [15]: 1600 nM |
| CCCn1c2ccccc2c2c3c(c4c5ccccc5[nH]c4c21)C(=O)NC3=O | <8 |  | 150 | 50000 |  |
| CC(C)n1c2ccccc2c2c3c(c4c5ccccc5[nH]c4c21)C(=O)NC3=O | 28 |  | 100 | 50000 |  |
| O=C1NC(=O)c2c1c1c3ccccc3[nH]c1c1c2c2ccccc2n1Cc1ccccc1 | <31 | 23 |  |  |  |
| Cn1c2ccccc2c2c3c(c4c5ccccc5[nH]c4c21)C(=O)NC3=O | >31 | 47 | 60 |  |  |
| O=C1NC(=O)c2c1c1c3ccccc3[nH]c1c1[nH]c3ccccc3c21 [STAUROSPORINE AGLYCON] | >125 | < 50 | 200 |  |  |
| O=C1NC(=O)c2c1c1c3ccccc3[nH]c1c1c2c2ccccc2n1CC(F)(F)F | <8 |  | 70 | 25000 |  |
